In brackets after ≈: the same amount, converted by molar mass. Where two headings read alike, the source gives them in different places.
Legend:
Type in all cases: cell-based
Streptococcus pyogenes = assay: MIC, CLSI broth microdilution, clinical isolates; conditions: Streptococcus pyogenes (N = 101)
Legionella pneumophila = assay: microbe, parasite or virus in culture
Morganella morganii = assay: MIC, CLSI broth microdilution, clinical isolates; conditions: Morganella morganii (N = 51)
Staphylococcus warneri = assay: MIC, CLSI broth microdilution, clinical isolates; conditions: Staphylococcus warneri (N = 50)
Streptococcus agalactiae = assay: MIC, CLSI broth microdilution, clinical isolates; conditions: Streptococcus agalactiae (N = 100)
Staphylococcus hominis = assay: MIC, CLSI broth microdilution, clinical isolates; conditions: Staphylococcus hominis (N = 50)
[1] = tested on: Staphylococcus haemolyticus; assay: MIC, CLSI broth microdilution, clinical isolates; conditions: Staphylococcus haemolyticus (N = 101)
[2] = tested on: Staphylococcus saprophyticus; assay: MIC, CLSI broth microdilution, clinical isolates; conditions: Staphylococcus saprophyticus (N = 101)
[3] = tested on: Staphylococcus epidermidis; assay: MIC, CLSI broth microdilution, clinical isolates; conditions: for MIC50: Staphylococcus epidermidis
Klebsiella oxytoca = assay: MIC, CLSI broth microdilution, clinical isolates; conditions: Klebsiella oxytoca (N = 50)
Haemophilus influenzae = assay: MIC, CLSI broth microdilution, clinical isolates; conditions: for MIC50 / MIC90: Haemophilus influenzae
Citrobacter koseri = assay: MIC, CLSI broth microdilution, clinical isolates; conditions: Citrobacter koseri (N = 100)
[4] = tested on: Staphylococcus lugdunensis; assay: MIC, CLSI broth microdilution, clinical isolates; conditions: Staphylococcus lugdunensis (N = 15)
Streptococcus pneumoniae = assay: MIC, CLSI broth microdilution, clinical isolates
Moraxella catarrhalis = assay: MIC, CLSI broth microdilution, clinical isolates; conditions: Moraxella catarrhalis (N = 101)
[5] = tested on: Lancefield group C, F, G streptococci; assay: MIC, CLSI broth microdilution, clinical isolates; conditions: G streptococci (N = 50)
Staphylococcus aureus = assay: MIC, CLSI broth microdilution, clinical isolates; conditions: for MIC50 / MIC90: Staphylococcus aureus
Viridans streptococci = assay: MIC, CLSI broth microdilution, clinical isolates; conditions: Viridans streptococci (N = 156)
[6] = Staphylococcus epidermidis (CNS, N = 6)
[7] = Staphylococcus epidermidis (CS, N = 9)
[8] = Staphylococcus epidermidis (MSSE, N = 6)
[9] = Staphylococcus epidermidis (all phenotypes, N = 15)
[10] = Haemophilus influenzae (all phenotypes, N = 40)
[11] = Haemophilus influenzae (bla negative, N = 24)
[12] = Haemophilus influenzae (bla positive, N = 16)
[13] = Streptococcus pneumoniae (PISP, N = 2)
[14] = Streptococcus pneumoniae (PRSP, N = 2)
[15] = Streptococcus pneumoniae (PSSP, N = 31)
[16] = Streptococcus pneumoniae (all phenotypes, N = 35)
[17] = Staphylococcus aureus (CNS, N = 16)
[18] = Staphylococcus aureus (CS, N = 14)
[19] = Staphylococcus aureus (all phenotypes, N = 30)
[20] = MRSA, Staphylococcus aureus (MRSA, N = 11)
[21] = MSSA, Staphylococcus aureus (MSSA, N = 19)

For C[C@H]1COc2c(N3CCN(C)CC3)c(F)cc3c(=O)c(C(=O)O)cn1c23 [Levofloxacin], the “% S” value (Streptococcus pyogenes) was 100.0%, the “MIC Range” value (Streptococcus pyogenes) was 0.25 to 2 µg/mL and the MIC50 (Streptococcus pyogenes; read-out: MIC50) was 0.5 µg/mL (≈ 1.38 µM). The MIC90 (Streptococcus pyogenes; read-out: MIC90) was 0.5 µg/mL (≈ 1.38 µM), the MIC50 (Legionella pneumophila; Legionella pneumophila) was 0.03 µg/mL (≈ 0.083 µM) and the MIC90 (Legionella pneumophila; Legionella pneumophila) was 0.03 µg/mL (≈ 0.083 µM). The “MIC Range” value (Legionella pneumophila; Legionella pneumophila (N = 50)) was 0.015 to 0.06 µg/mL, the “% S” value (Morganella morganii) was 76.5% and the MIC50 (Morganella morganii) was 0.06 µg/mL (≈ 0.166 µM). The MIC90 (Morganella morganii) was 8 µg/mL (≈ 22.1 µM), the “% S” value (Staphylococcus warneri) was 76.0% and the MIC50 (Staphylococcus warneri) was 0.12 µg/mL (≈ 0.332 µM). For the same compound, the MIC90 (Staphylococcus warneri) was greater than 8 µg/mL, the “% S” value (Streptococcus agalactiae) was 98.0% and the “MIC Range” value (Streptococcus agalactiae) was 0.25 to 4 µg/mL. The MIC50 (Streptococcus agalactiae; read-out: MIC50) was 0.5 µg/mL (≈ 1.38 µM), the MIC90 (Streptococcus agalactiae; read-out: MIC90) was 1 µg/mL (≈ 2.77 µM) and the “% S” value (Staphylococcus hominis) was 30.0%. For the same compound, the MIC50 (Staphylococcus hominis) was 8 µg/mL (≈ 22.1 µM), the MIC90 (Staphylococcus hominis) was greater than 8 µg/mL and the “% S” value [1] was 39.6%. The MIC50 [1] was 4 µg/mL (≈ 11.1 µM), the MIC90 [1] was greater than 8 µg/mL and the “% S” value [2] was 100.0%. The MIC50 [2] was 0.5 µg/mL (≈ 1.38 µM), the MIC90 [2] was 0.5 µg/mL (≈ 1.38 µM) and the “MIC Range” value [2] was 0.06 to 0.5 µg/mL. The “% S” value [3, 6] was 0.0%, the “% S” value [3, 7] was 100.0% and the “MIC Range” value [3, 7] was 0.12-0.12 μg/mL. For the same compound, the “% S” value ([3]; Staphylococcus epidermidis (MRSE, N = 9)) was 44.4%, the “% S” value [3, 8] was 83.3% and the “MIC Range” value [3, 8] was 0.12 to 8 µg/mL. The “% S” value [3, 9] was 60.0%, the MIC90 [3, 9] was greater than 8 µg/mL and the MIC50 ([3]; MRSE, Staphylococcus epidermidis (MRSE, N = 9)) was 2 µg/mL (≈ 5.53 µM). The MIC50 [3, 6] was 8 µg/mL (≈ 22.1 µM), the MIC50 [3, 7] was 0.12 µg/mL (≈ 0.332 µM) and the MIC50 [3, 8] was 0.12 µg/mL (≈ 0.332 µM). For the same compound, the MIC50 [3, 9] was 0.12 µg/mL (≈ 0.332 µM), the “% S” value (Klebsiella oxytoca) was 90.0% and the MIC50 (Klebsiella oxytoca) was 0.03 µg/mL (≈ 0.083 µM). For the same compound, the MIC90 (Klebsiella oxytoca) was 0.5 µg/mL (≈ 1.38 µM), the “MIC Range” value (Klebsiella oxytoca) was 0.015 to 8 µg/mL and the “% S” value (Haemophilus influenzae; [10]) was 100.0%. The “MIC Range” value (Haemophilus influenzae; [10]) was 0.008 to 0.015 µg/mL, the “% S” value (Haemophilus influenzae; [11]) was 100.0% and the “MIC Range” value (Haemophilus influenzae; [11]) was 0.008 to 0.015 µg/mL. For the same compound, the “% S” value (Haemophilus influenzae; [12]) was 100.0%, the “MIC Range” value (Haemophilus influenzae; [12]) was 0.015-0.015 μg/mL and the MIC50 (Haemophilus influenzae; [10]) was 0.015 µg/mL (≈ 0.0415 µM). It also gave an MIC90 (Haemophilus influenzae; [10]) of 0.015 µg/mL (≈ 0.0415 µM), an MIC50 (Haemophilus influenzae; [11]) of 0.015 µg/mL (≈ 0.0415 µM) and an MIC90 (Haemophilus influenzae; [11]) of 0.015 µg/mL (≈ 0.0415 µM). For the same compound, the MIC50 (Haemophilus influenzae; [12]) was 0.015 µg/mL (≈ 0.0415 µM), the MIC90 (Haemophilus influenzae; [12]) was 0.015 µg/mL (≈ 0.0415 µM) and the “% S” value (Citrobacter koseri) was 99.0%. For the same compound, the MIC50 (Citrobacter koseri) was 0.03 µg/mL (≈ 0.083 µM), the MIC90 (Citrobacter koseri) was 0.12 µg/mL (≈ 0.332 µM) and the “% S” value [4] was 66.7%. For the same compound, the MIC50 [4] was 0.25 µg/mL (≈ 0.692 µM), the MIC90 [4] was greater than 8 µg/mL and the “% S” value (Streptococcus pneumoniae; [13]) was 100.0%. The “MIC Range” value (Streptococcus pneumoniae; [13]) was 0.5 to 1 µg/mL, the “% S” value (Streptococcus pneumoniae; [14]) was 100.0% and the “MIC Range” value (Streptococcus pneumoniae; [14]) was 0.5 to 1 µg/mL. For the same compound, the “% S” value (Streptococcus pneumoniae; [15]) was 96.8%, the MIC50 (Streptococcus pneumoniae; [15]) was 0.5 µg/mL (≈ 1.38 µM) and the MIC90 (Streptococcus pneumoniae; [15]) was 1 µg/mL (≈ 2.77 µM). For the same compound, the “MIC Range” value (Streptococcus pneumoniae; [15]) was 0.5 to 8 µg/mL, the “% S” value (Streptococcus pneumoniae; [16]) was 97.1% and the “MIC Range” value (Streptococcus pneumoniae; [16]) was 0.5 to 8 µg/mL. For the same compound, the MIC50 (Streptococcus pneumoniae; Streptococcus pneumoniae (all phenotypes, N = 35), read-out: MIC50) was 0.5 µg/mL (≈ 1.38 µM), the MIC90 (Streptococcus pneumoniae; Streptococcus pneumoniae (all phenotypes, N = 35), read-out: MIC90) was 1 µg/mL (≈ 2.77 µM) and the “% S” value (Moraxella catarrhalis) was 100.0%. For the same compound, the MIC50 (Moraxella catarrhalis) was 0.015 µg/mL (≈ 0.0415 µM), the MIC90 (Moraxella catarrhalis) was 0.03 µg/mL (≈ 0.083 µM) and the “MIC Range” value (Moraxella catarrhalis) was 0.015 to 0.5 µg/mL. For the same compound, the “% S” value [5] was 98.0%, the “MIC Range” value [5] was 0.12 to 8 µg/mL and the MIC50 ([5]; read-out: MIC50) was 0.5 µg/mL (≈ 1.38 µM). The MIC90 ([5]; read-out: MIC90) was 0.5 µg/mL (≈ 1.38 µM), the “% S” value (Staphylococcus aureus; [17]) was 12.5% and the “% S” value (Staphylococcus aureus; [18]) was 92.9%. The “MIC Range” value (Staphylococcus aureus; [18]) was 0.06 to 2 µg/mL, the “% S” value (Staphylococcus aureus; Staphylococcus aureus (MRSA, N = 11)) was 18.2% and the “% S” value (Staphylococcus aureus; Staphylococcus aureus (MSSA, N = 19)) was 68.4%. For the same compound, the “% S” value (Staphylococcus aureus; [19]) was 50.0%, the MIC50 (Staphylococcus aureus; [20]) was 4 µg/mL (≈ 11.1 µM) and the MIC90 (Staphylococcus aureus; [20]) was greater than 8 µg/mL. The MIC50 (Staphylococcus aureus; [21]) was 0.25 µg/mL (≈ 0.692 µM), the MIC90 (Staphylococcus aureus; [21]) was 4 µg/mL (≈ 11.1 µM) and the MIC50 (Staphylococcus aureus; [17]) was 4 µg/mL (≈ 11.1 µM). For the same compound, the MIC90 (Staphylococcus aureus; [17]) was greater than 8 µg/mL, the MIC50 (Staphylococcus aureus; [18]) was 0.12 µg/mL (≈ 0.332 µM) and the MIC90 (Staphylococcus aureus; [18]) was 0.25 µg/mL (≈ 0.692 µM). For the same compound, the MIC50 (Staphylococcus aureus; [19]) was 1 µg/mL (≈ 2.77 µM), the MIC90 (Staphylococcus aureus; [19]) was greater than 8 µg/mL and the “% S” value (Viridans streptococci) was 95.5%. It also gave an MIC50 (Viridans streptococci; read-out: MIC50) of 1 µg/mL (≈ 2.77 µM) and an MIC90 (Viridans streptococci; read-out: MIC90) of 1 µg/mL (≈ 2.77 µM).

— patent publication US8415342B2, “Besifloxacin ophthalmic composition for the treatment or control of infection” (Bausch & Lomb Incorporated, priority 2008, dated 2013)
